Values quoted from earlier work as cited in paper PMC6314896 (Chembiochem : a European journal of chemical biology, 2018).

System: trypsin
Details: both toxins under the same conditions

| Substance | stability to trypsin (in words) |
| --- | --- |
| ProTx-I | degraded rapidly |
| ProTx-II | completely stable |
